Results: US20220211861A1, “DRUG CONJUGATES AND METHODS OF USING SAME” (The Board of Trustees of the Leland Staford Junior …, priority 2019, published 2022)
*1 amine or outer side, *2 acyl side, *3 side chain or, on linkers, in order; H or OH if unused. Where a SMILES comes first, the peptide text is derived from it. Bridges are numbered along the chain shown (N, C = ends). Roman numbers before positions name the chains, in order. [ ]: non-standard residue; d: D form. The star is where a group is joined. X1 = O=C([C@H](CCCn1nnc2c1-c1ccccc1CN([*:3])c1ccccc1-2)N[*:1])[*:2]; Dolaproine = CO[C@@H]([C@@H]1CCCN1)[C@@H](C)C(=O)O; X3 = O=C(CCC(=O)[*:1])NCCOCCOCCOCCC(=O)[*:2]; Dil = CC[C@H](C)[C@H](NC)[C@@H](CC(=O)O)OC; PABC = O=C(OCc1ccc(N[*:1])cc1)[*:2]; X2 = C[C@@H](N*)[C@@H](O)c1ccccc1; Cit = NC(=O)NCCC[C@H](N)C(=O)O; NMeV = CN[C@H](C(=O)O)C(C)C

Assays:
[1] = tested on: U87MG glioblastoma hip xenografts; test: Ex vivo biodistribution of AF680-labeled conjugates; assay type: in vivo, mice; settings: radiant efficiency of excised organs
Description: To further assess the tumor-to-background ratio, the uptake of fluorescently-labeled drug conjugate by each organ was measured ex vivo. Nude mice bearing U87MG glioblastoma hip xenografts were injected intravenously with Alexa Fluor 680-conjugated proteins. Mice were sacrificed after 3 or 24 h and organs were removed for imaging. […] Specifically, the liver, kidneys, spleen, pancreases, heart, lungs, bladder, quadriceps, and femur (FIG. 18).
Mice bearing U87MG flank xenografts, as described above, were injected intravenously with 1.5 nmol of Alexa Fluor 680-labeled K, KFc, or KAb. Organs (tumor, liver, kidneys, spleen, pancreas, heart, lungs, bladder, quadriceps muscle, and bone) were collected at end points of 4 h and 24 h. Organs were imaged using an IVIS Spectrum (PerkinElmer). The fluorophore-conjugated protein was detected using excitation/emission wavelengths of 640 nm and 710 nm, respectively. All imaging analysis was performed using Living Image software (Caliper Life Sciences).

U87MG hip xenografts = test: Therapeutic efficacy study, once weekly for four weeks, tumors implanted with Matrigel; assay type: in vivo, Nu/Nu mice
Description: To further investigate each compound, several changes were made to the experimental design. Because of the KDC's rapid systemic clearance, a significant portion of the injected dose is likely lost and the ˜0.6 mg/kg dose was therefore increased substantially. Because dosages for chemotherapeutics are conventionally determined as mass of chemotherapeutic per patient body surface area, a more clinically relevant comparison of equal mass was selected over an equimolar comparison. Next, a once-per-week dosing regimen was selected to coincide with realistic clinical dosing considerations. Finally, tumors were implanted with Matrigel matrix to increase tumor growth and with only 2.5×10^6 cells per injection to decrease initial tumor necrosis. Mice bearing U87MG hip xenografts were equally distributed into the following treatment groups with intravenous injections given once weekly for 4 weeks: KDC, KFDC, KADC, unconjugated proteins, or a PBS control. Each drug conjugate was also evaluated at a low dose and a high dose.
For tumor cell implantation, female Nu/Nu mice (Charles River Laboratory) were anesthetized with 2.5% isoflurane by inhalation with a flow rate of 1 L/min. A volume of 200 μL of 50/50 PBS/Matrigel (Corning), containing 2.5×10^6 U87MG cells, was injected subcutaneously into the right flank. Tumors were allowed to grow for 7 days until reaching a size of approximately 35 mm^2. For therapeutic efficacy studies, mice were binned into experimental groups to ensure equivalent average tumor sizes and starting body weights across all groups.
Mice bearing U87MG flank xenografts, as described above, were injected intravenously with PBS, KDC, KFDC, KADC, or controls proteins. Treatments were administered once per week for four weeks. Tumors were measured three times per week using digital calipers and animal weights were recorded on each dosing day to monitor for potential weight loss as a measure of compound toxicity. Tumor area was calculated as the longest axis of the tumor multiplied by the perpendicular axis. Euthanasia criteria were defined as a tumor area greater than 150 mm^2 or a loss of 20% body weight.

[2] = Liver and kidney histology (H&E) of treated mice; assay type: in vivo; settings: scored by independent pathologist, after the 60-day experiment
Description: Despite the impressive in vivo efficacy of the KDCs, there are potential concerns of acute toxicity given its rapid renal filtration and high molar dose of MMAE. […] After the 60-day experiment, livers and kidneys were harvested from treated mice, fixed in 4% paraformaldehyde (PFA), then embedded in paraffin blocks for tissue sectioning. Sections were stained with hematoxylin and eosin to visualize cellular structures and scored by an independent pathologist for evidence of acute toxicity. Representative images shown in FIG. 26 were all free from indicators of toxicity and all samples were scored identically to healthy mice.

[3] = 1 mg/kg once weekly for 4 weeks
[4] = 5 mg/kg once weekly for 4 weeks

## CC[C@H](C)[C@@H]([C@@H](CC(=O)N1CCC[C@H]1[C@H](OC)[C@@H](C)C(=O)N[C@H](C)[C@@H](O)c1ccccc1)OC)N(C)C(=O)[C@@H](NC(=O)[C@H](C(C)C)N(C)C(=O)OCc1ccc(NC(=O)[C@H](CCCNC(N)=O)NC(=O)[C@@H](NC(=O)CCOCCOCCOCCNC(=O)CCC(=O)N2Cc3ccccc3-c3c(nnn3CCC[C@@H]3NC(=O)[C@@H]4CSSC[C@@H]5NC(=O)[C@H](C(C)C)NC(=O)[C@H](CSSC[C@H](NC(=O)CN)C(=O)N6CCC[C@H]6C(=O)N[C@@H](CCCNC(=N)N)C(=O)N6CCC[C@H]6C(=O)N[C@@H](CCCNC(=N)N)C(=O)NCC(=O)N[C@@H](CC(=O)O)C(=O)N[C@@H](CC(N)=O)C(=O)N6CCC[C@H]6C(=O)N6CCC[C@H]6C(=O)N[C@@H](CC(C)C)C(=O)N[C@@H]([C@@H](C)O)C(=O)N4)NC(=O)CNC(=O)[C@H](C)NC(=O)[C@H](CC(C)C)NC(=O)[C@H](CSSC[C@@H](C(=O)NCC(N)=O)NC(=O)[C@H](Cc4ccc(O)cc4)NC(=O)CNC(=O)[C@H](CC(N)=O)NC(=O)[C@@H]4CCCN4C(=O)CNC5=O)NC(=O)[C@H](CC(=O)O)NC(=O)[C@H](CO)NC(=O)[C@H](CC(=O)O)NC(=O)[C@H](CCC(N)=O)NC3=O)-c3ccccc32)C(C)C)cc1)C(C)C [KDC] (I: H-GCPRPRGDNPPLTC[X1]QDSDCLAGCVCGPNGYCG-NH2 / II: V[Cit][PABC][NMeV]V[Dil][Dolaproine]-X2; disulfide I:2-I:24, I:14-I:26, I:20-I:32; linker I:15-II:N via X3; N-terminus assumed)
[1]
  organ uptake ex vivo: higher kidney and bladder uptake
U87MG hip xenografts; [3]
  tumor growth: significantly delayed tumor growth but did not cause tumor regression
  tumors regrew after the end of treatment: 5 of 5
U87MG hip xenografts; [4]
  efficacy: very effective
  tumor regression: 4 of 5
U87MG hip xenografts; once weekly for 4 weeks
  comparison by mass of drug conjugate per kg mouse body weight: significantly outperformed both KFDC and KADC
[2]
  liver and kidney histology, acute toxicity: no evidence of acute toxicity
